In article PMC9631409 (ACS Omega, 2022) one finds Kd data, which are given here for four compounds.

This assay concerns the target T1, FmtA^Δ80 (Staphylococcus aureus, UniProt O50608).
T1 sequence (O50608 81-397): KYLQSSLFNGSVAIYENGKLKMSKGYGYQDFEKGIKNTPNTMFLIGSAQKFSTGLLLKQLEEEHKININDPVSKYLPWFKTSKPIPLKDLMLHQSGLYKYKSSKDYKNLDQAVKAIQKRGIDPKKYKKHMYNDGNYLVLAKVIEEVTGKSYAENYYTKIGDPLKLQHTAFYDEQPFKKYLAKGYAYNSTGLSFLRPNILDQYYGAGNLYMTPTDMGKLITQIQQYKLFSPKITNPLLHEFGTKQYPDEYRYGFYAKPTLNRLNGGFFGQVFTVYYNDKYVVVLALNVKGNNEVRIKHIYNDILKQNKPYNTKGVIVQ
Briefly: isothermal titration calorimetry, one-site model. Format: binding.

One may read the Kd as the free concentration of one partner at which half of the binding sites on the other are occupied at equilibrium, for simple one-to-one binding. Turning to `NC[C@@H]1O[C@H](O[C@H]2[C@@H](O)[C@H](O[C@@H]3[C@@H](O)[C@H](N)C[C@H](N)[C@H]3O[C@H]3O[C@H](CO)[C@@H](O)[C@H](O)[C@H]3N)O[C@@H]2CO)[C@H](N)[C@@H](O)[C@@H]1O` [paromomycin], binding was put at a Kd of 8.56 µM.

`[H]/N=C(/N)N[C@H]1[C@H](O)[C@@H](O)[C@H](O[C@@H]2O[C@@H](C)[C@](O)(C=O)[C@H]2O[C@@H]2O[C@@H](CO)[C@H](O)[C@@H](O)[C@@H]2NC)[C@@H](N/C(N)=N\[H])[C@@H]1O` [streptomycin] yielded a Kd of 11.1 µM.

Compound `NC[C@H]1O[C@H](O[C@H]2[C@H](O)[C@@H](O[C@H]3O[C@H](CO)[C@@H](O)[C@H](N)[C@H]3O)[C@H](N)C[C@@H]2N)[C@H](N)C[C@@H]1O` [tobramycin] came in with a Kd of 25.8 µM.

For `CO/N=C1\CN(c2nc3c(cc2F)c(=O)c(C(=O)O)cn3C2CC2)CC1CN` (stereo not shown) [gemifloxacin], the Kd stood at 1.7 µM.
